Laboratory results as given in patent US20260285853A1, “COMPOUNDS AND METHODS FOR MODULATING SPLICING” (REMIX THERAPEUTICS INC., priority 2023, published 2026).

Key:
Assay type in all cases: cell-based
HTT mRNA [1] = assay: Splicing RT-qPCR assay (THP), Table 2A; settings: Table 2A (THP); for AC50: AJ mRNA increase, read-out: HTT AJ (increase in alternative junction mRNA, AC50); for IC50: CJ mRNA decrease, read-out: HTT CJ (decrease in canonical junction mRNA, IC50)
MYB mRNA [2] = assay: Splicing RT-qPCR assay (THP), Table 2A; settings: Table 2A (THP); for AC50: AJ mRNA increase, read-out: MYB AJ (increase in alternative junction mRNA, AC50); for IC50: CJ mRNA decrease, read-out: MYB CJ (decrease in canonical junction mRNA, IC50)
HTT mRNA [3] = assay: Gene panel canonical junction qPCR assay, decrease in CJ mRNA, Table 3; settings: decrease in canonical junction (CJ) mRNA, gene panel qPCR, Table 3
In short: (§1)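 A673 (DMEM, 10% FBS, 15,000 cells/well) or K562 (IMDM, 10% FBS) cells treated 24 h at 37 °C with 11-point 3-fold dilutions, top 10 uM, DMSO ≤0.25%. Canonical exon-exon junction mRNA measured by RT-qPCR, normalized to GAPDH, GUSB or PPIA and DMSO (ΔΔCt); IC50 from 4-parameter logistic fit.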

MYB mRNA [4] = assay: as above; settings: decrease in canonical junction (CJ) mRNA, gene panel qPCR, Table 3
In short: as §1

SMN2 mRNA = assay: as above; settings: decrease in canonical junction (CJ) mRNA, gene panel qPCR, Table 3
In short: as §1

[5] = tested on: SH-SY5Y (human neuroblastoma) cells; assay: Cell viability, Cell Titer Glo 2.0 assay; settings: read-out: Viability SHSY5Y.3 GI50
In short: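 Toxicity screen in SH-SY5Y cells. Compounds were serially diluted in DMSO and then in medium, giving 0.1% DMSO final. Viability was read with CellTiter-Glo 2.0 after 72 h at 37 °C, 5% CO2, against medium-only blank wells.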

| SMILES | AC50 (HTT mRNA [1]) [µM] | IC50 (HTT mRNA [1]) [µM] | AC50 (MYB mRNA [2]) [µM] | IC50 (MYB mRNA [2]) [µM] | IC50 (HTT mRNA [3]) [µM] | IC50 (MYB mRNA [4]) [µM] | IC50 (SMN2 mRNA) [µM] | GI50 [5] [µM] |
| --- | --- | --- | --- | --- | --- | --- | --- | --- |
| CNC1(C)CCN(c2cc(F)c(C(=O)Nc3cc(F)c4nc(C)cn4c3)c3nn(C)cc23)CC1 [Compound 179, 6-fluoro-N-(8-fluoro-2-methyl-imidazo[1,2-a]pyridin-6-yl)-2-methyl-4-[4-methyl-4-(methylamino)-1-piperidyl]indazole-7-carboxamide] | < 0.1 | < 0.1 | < 0.1 | < 0.1 | < 0.1 | < 0.1 | < 0.1 | < 0.1 |
| CNC1(C)CCN(c2cc(F)c(C(=O)Nc3cn4cc(C)nc4c(F)c3OC)c3nn(C)cc23)CC1 [Compound 180, 6-fluoro-N-(8-fluoro-7-methoxy-2-methyl-imidazo[1,2-a]pyridin-6-yl)-2-methyl-4-[4-methyl-4-(methylamino)-1-piperidyl]indazole-7-carboxamide] | < 0.1 | < 0.1 | < 0.1 | < 0.1 | < 0.1 | < 0.1 | < 0.1 | < 0.1 |
| CCNC1CCN(c2ccc(C(=O)Nc3cn4cc(C)nc(C)c4n3)c3nn(C)cc23)CC1 [Compound 181, N-(6,8-dimethylimidazo [1,2-a]pyrazin-2-yl)-4-[4-(ethylamino)-1-piperidyl]-2-methyl-indazole-7-carboxamide] | 1 to 10 | 1 to 10 | 0.1 to 1 | 0.1 to 1 | 0.1 to 1 | 0.1 to 1 | < 0.1 | 0.1 to 1 |
| CCNC1CCN(c2ccc(C(=O)Nc3cc(F)c4nn(C)cc4c3)c3nn(C)cc23)CC1 [Compound 182, 4-(4-(ethylamino)piperidin-1-yl)-N-(7-fluoro-2-methyl-2H-indazol-5-yl)-2-methyl-2H-indazole-7-carboxamide] | 1 to 10 | 1 to 10 | < 0.1 | < 0.1 | 1 to 10 | < 0.1 | < 0.1 | 0.1 to 1 |
| Cc1cn2cc(NC(=O)c3ccc(N4CCC(NC5CC5)CC4)c4cc(C)oc34)cc(F)c2n1 [Compound 185, 4-[4-(cyclopropyl-amino)-1-piperidyl]-N-(8-fluoro-2-methyl-imidazo[1,2-a]pyridin-6-yl)-2-methyl-benzofuran-7-carboxamide] | 1 to 10 | 1 to 10 | < 0.1 | 0.1 to 1 | 1 to 10 | 0.1 to 1 | < 0.1 | 0.1 to 1 |
| CCNC1CCN(c2ccc(C(=O)Nc3cc(C)c4nc(C)cn4n3)c3nn(C)cc23)CC1 [Compound 186, N-(2,8-dimethylimidazo [1,2-b]pyridazin-6-yl)-4-[4-(ethylamino)-1-piperidyl]-2-methyl-indazole-7-carboxamide] | 0.1 to 1 | 0.1 to 1 | 0.1 to 1 | 0.1 to 1 | 0.1 to 1 | 0.1 to 1 | 0.1 to 1 | 0.1 to 1 |
| Cc1cn2nc(NC(=O)c3ccc(N4CCC(NC5CC5)CC4)c4cn(C)nc34)cc(C)c2n1 [Compound 187, 4-[4-(cyclopropylamino)-1-piperidyl]-N-(2,8-dimethylimidazo-[1,2-b]pyridazin-6-yl)-2-methyl-indazole-7-carboxamide] | 0.1 to 1 | 0.1 to 1 | 0.1 to 1 | 0.1 to 1 | 0.1 to 1 | 0.1 to 1 | 0.1 to 1 | 0.1 to 1 |
| CCNC1CCN(c2ccc(C(=O)Nc3cc(F)c4nc(C)c(C)n4c3)c3nn(C)cc23)CC1 [Compound 188, 4-[4-(ethylamino)-1-piperidyl]-N-(8-fluoro-2,3-dimethyl-imidazo[1,2-a]pyridin-6-yl)-2-methyl-indazole-7-carboxamide] | > 10 | > 10 | > 10 | > 10 | > 10 | > 10 | > 10 | 1 to 10 |
| Cc1nc2c(F)cc(NC(=O)c3ccc(N4CCC(NC5CC5)CC4)c4cn(C)nc34)cn2c1C [Compound 189, 4-[4-(cyclopropylamino)-1-piperidyl]-N-(8-fluoro-2,3-dimethyl-imidazo[1,2-a]pyridin-6-yl)-2-methyl-indazole-7-carboxamide] | 0.1 to 1 | > 10 | > 10 | > 10 | > 10 | > 10 | > 10 | 0.1 to 1 |
| CCNC1CCN(c2ccc(C(=O)Nc3cc4cn(C)nc4cc3O)c3[nH]ccc23)CC1 [Compound 190, 4-[4-(ethylamino)-1-piperidyl]-N-(6-hydroxy-2-methyl-indazol-5-yl)-1H-indole-7-carboxamide] | > 10 | > 10 | > 10 | > 10 | > 10 | > 10 | > 10 | > 10 |
| Cc1cn2cc(NC(=O)c3ccc(N4CCC(NC5CC5)CC4)c4ccoc34)cc(F)c2n1 [Compound 191, 4-[4-(cyclopropylamino)-1-piperidyl]-N-(8-fluoro-2-methyl-imidazo[1,2-a]pyridin-6-yl) benzofuran-7-carboxamide] | 1 to 10 | 1 to 10 | < 0.1 | 0.1 to 1 | 1 to 10 | 0.1 to 1 | < 0.1 | 0.1 to 1 |
| Cc1cn2cc(NC(=O)c3ccc(C4CCC(NC5CC5)CC4)c4cn(C)nc34)cc(F)c2n1 (stereo not drawn) [Compound 192, 4-[4-(cyclopropylamino)cyclohexyl]-N-(8-fluoro-2-methyl-imidazo[1,2-a]pyridin-6-yl)-2-methyl-indazole-7-carboxamide] | 1 to 10 | 1 to 10 | 0.1 to 1 | 0.1 to 1 | 0.1 to 1 | 0.1 to 1 | < 0.1 | 0.1 to 1 |
| CCNC1CCN(c2ccc(C(=O)Nc3cc(F)c4nc(CO)cn4c3)c3nn(C)cc23)CC1 [Compound 193, 4-[4-(ethylamino)-1-piperidyl]-N-[8-fluoro-2-(hydroxymethyl)imidazo[1,2-a]pyridin-6-yl]-2-methyl-indazole-7-carboxamide] | 1 to 10 | 1 to 10 | 0.1 to 1 | 0.1 to 1 | > 10 | 0.1 to 1 | < 0.1 | 1 to 10 |
| Cc1cn2cc(NC(=O)c3ccc(C4CNCCO4)c4[nH]cnc34)cc(F)c2n1 (stereo not drawn) [Compound 194, N-(8-fluoro-2-methyl-imidazo[1,2-a]pyridin-6-yl)-7-morpholin-2-yl-1H-benzimidazole-4-carboxamide] | > 10 | 1 to 10 | 0.1 to 1 | 0.1 to 1 | 1 to 10 | 0.1 to 1 | < 0.1 | 1 to 10 |
| CCNC1CCN(c2cc(F)c(C(=O)Nc3cc(F)c4nc(C)cn4c3)c3ccoc23)CC1 [Compound 195, 7-[4-(ethylamino)-1-piperidyl]-5-fluoro-N-(8-fluoro-2-methylimidazo[1,2-a]pyridin-6-yl)-benzofuran-4-carboxamide] | > 10 | > 10 | > 10 | > 10 | > 10 | > 10 | 1 to 10 | 1 to 10 |
| CCNC1CCN(c2ccc(C(=O)Nc3cc(F)c4nc(C)cn4c3)c3nn(C)nc23)CC1 [Compound 196, 7-[4-(ethylamino)piperidin-1-yl]-N-(8-fluoro-2-methyl-imidazo[1,2-a]pyridin-6-yl)-2-methyl-1,2,3-benzotriazole-4-carboxamide] | 0.1 to 1 | 0.1 to 1 | 0.1 to 1 | 0.1 to 1 | 0.1 to 1 | 0.1 to 1 | < 0.1 | 1 to 10 |
| CNC1(C)CCN(c2ccc(C(=O)Nc3cn4cc(C)nc4c(OC)n3)c3nn(C)cc23)CC1 [Compound 197, N-(8-methoxy-2-methylimidazo[1,2-a]pyrazin-6-yl)-2-methyl-4-(4-methyl-4-(methylamino)piperidin-1-yl)-2H-indazole-7-carboxamide] | < 0.1 | < 0.1 | < 0.1 | < 0.1 | < 0.1 | < 0.1 | < 0.1 | < 0.1 |
| CCNC1CCN(c2ccc(C(=O)Nc3cc(F)c4nc(C)cn4c3)c3c2nnn3C)CC1 [Compound 198, 4-(4-(ethylamino)piperidin-1-yl)-N-(8-fluoro-2-methylimidazo[1,2-a]pyridin-6-yl)-1-methyl-1H-benzo[d][1,2,3]triazole-7-carboxamide 2,2,2-trifluoroacetate] | > 10 | > 10 | > 10 | > 10 | > 10 | > 10 | > 10 | > 10 |
